# Values quoted from earlier work as cited in patent publication US12036313B2, “Personal lubricants comprising lambda-carrageenan” (LANVIRA, LLC, priority 2018, dated 2024).
# System: HPV
# Conditions: in vitro and in vivo
substance,measurement,value
lambda-carrageenan,Activity against HPV,active against HPV
